Data reported in patent publication US20130303509A1, “NAMPT INHIBITORS” (AbbVie Inc., priority 2012, published 2013).

Tested on: PC3 cells
Assay: NAMPT Cell Proliferation Assay
Assay type: cell-based
Details: Homo sapiens, PC-3, 120 h, 5 days incubation, cell viability by Cell Titer Glo
Description: NAMPT Cell Proliferation Assay
PC3 cells were seeded in 96-well black plates (Corning #3904) at 500 cells)Owell in 90 µl of RPMI media containing 10% heat-inactivated FBS and incubated overnight at 37° C. and 5% CO2 to allow cells to attach to wells. The following day, test compounds were serially diluted in neat DMSO to 1000× final concentrations prior to dilution with RPMI media to 10× and 1% DMSO. […] of the 10× compounds were then transferred to wells containing cells to produce a dose response of 10-fold dilutions from […] to 1×10^−[…]. Cells were incubated for 5 days at 37° C. and 5% CO2, then cell viability was measured using Cell Titer Glo reagent (Promega #G7571). Percent inhibition values were calculated and fitted to a sigmoidal dose response curves using Assay Explorer software to determine IC50s.

Row | IC50 | Compound
1 | 93.2 nM | O=C(Nc1ccc(OC2CCN(C(=O)c3ccc(Cl)cc3)CC2)cc1)C1CN(c2ccnnc2)C1 [Example 297, N-(4-{[1-(4-chlorobenzoyl)piperidin-4-yl]oxy}phenyl)-1-(pyridazin-4-yl)azetidine-3-carboxamide]
2 | 8.75 nM | O=C(Nc1ccc(OC2CCN(C(=O)c3cccc(F)c3)CC2)cc1)C1CN(c2cccnn2)C1 [Example 231, N-(4-{[1-(3-fluorobenzoyl)piperidin-4-yl]oxy}phenyl)-1-(pyridazin-3-yl)azetidine-3-carboxamide]
3 | 14.3 nM | CC(C)CC(=O)N1CC[C@@H](Oc2ccc(NC(=O)C3CN(c4ccnnc4)C3)cc2)C1 [Example 478, N-(4-{[(3R)-1-(3-methylbutanoyl)pyrrolidin-3-yl]oxy}phenyl)-1-(pyridazin-4-yl)azetidine-3-carboxamide]
4 | 68.9 nM | O=C(Nc1ccc(OC2CCN(C(=O)c3ccccn3)CC2)cc1)C1CN(c2ccnnc2)C1 [Example 296, 1-(pyridazin-4-yl)-N-(4-{[1-(pyridin-2-ylcarbonyl)piperidin-4-yl]oxy}phenyl)azetidine-3-carboxamide]
5 | 1.44 nM | O=C(Nc1ccc(C2CCN(C(=O)CN3CCOCC3)CC2)cc1)C1CN(c2cccnc2)C1 [Example 103, N-{4-[1-(morpholin-4-ylacetyl)piperidin-4-yl]phenyl}-1-(pyridin-3-yl)azetidine-3-carboxamide]
6 | 6.75 nM | Cc1ccncc1N1CC(C(=O)Nc2ccc(OC3CCN(C(=O)CC4CCOCC4)CC3)cc2)C1 [Example 5, 1-(4-methylpyridin-3-yl)-N-(4-{[1-(tetrahydro-2H-pyran-4-ylacetyl)piperidin-4-yl]oxy}phenyl)azetidine-3-carboxamide]
7 | 677 nM | CCOCC(=O)N1CCC(c2ccc(NC(=O)C3CN(c4cccnc4C)C3)cc2)CC1 [Example 191, N-{4-[1-(ethoxyacetyl)piperidin-4-yl]phenyl}-1-(2-methylpyridin-3-yl)azetidine-3-carboxamide]
8 | 12.1 nM | O=C(Nc1ccc(O[C@@H]2CCN(C(=O)C3CCCO3)C2)cc1)C1CN(c2cccnn2)C1 (stereo partly drawn) [Example 499, 1-(pyridazin-3-yl)-N-(4-{[(3R)-1-(tetrahydrofuran-2-ylcarbonyl)pyrrolidin-3-yl]oxy}phenyl)azetidine-3-carboxamide]
9 | 62.7 nM | O=C(Nc1ccc(OC2CCN(C(=O)C3CCC(F)(F)CC3)CC2)cc1)C1CN(c2ccnnc2)C1 [Example 270, N-[4-({1-[(4,4-difluorocyclohexyl)carbonyl]piperidin-4-yl}oxy)phenyl]-1-(pyridazin-4-yl)azetidine-3-carboxamide]
10 | 683 nM | CCOCCC(=O)N1CCC(c2ccc(NC(=O)C3CN(c4cccnc4C)C3)cc2)CC1 [Example 175, N-{4-[1-(3-ethoxypropanoyl)piperidin-4-yl]phenyl}-1-(2-methylpyridin-3-yl)azetidine-3-carboxamide]

Further lines, the compound ahead of its results:

Row | Compound | IC50
11 | O=C(Nc1ccc(C2CCN(C(=O)Cc3cccc(C(F)(F)F)c3)CC2)cc1)[C@H]1CCN(c2cccnn2)C1 [Example 648, (3S)-1-(pyridazin-3-yl)-N-[4-(1-{[3-(trifluoromethyl)phenyl]acetyl}piperidin-4-yl)phenyl]pyrrolidine-3-carboxamide] | 26.8 nM
12 | CC(C)(C)Cn1cc(-c2ccc(NC(=O)C3CN(c4cccnn4)C3)cc2)cn1 [Example 751, N-{4-[1-(2,2-dimethylpropyl)-1H-pyrazol-4-yl]phenyl}-1-(pyridazin-3-yl)azetidine-3-carboxamide] | 2.71 nM
13 | Cc1ncccc1N1CC(C(=O)Nc2ccc(C3CCN(C(=O)c4ccco4)CC3)cc2)C1 [Example 189, N-{4-[1-(furan-2-ylcarbonyl)piperidin-4-yl]phenyl}-1-(2-methylpyridin-3-yl)azetidine-3-carboxamide] | 14.6 nM
14 | CC(=O)N1CCC(c2ccc(NC(=O)C3CN(c4cccnc4)C3)cc2)CC1 [Example 118, N-[4-(1-acetylpiperidin-4-yl)phenyl]-1-(pyridin-3-yl)azetidine-3-carboxamide] | 0.22 nM
15 | Cc1ccccc1C(=O)N1CC[C@@H](Oc2ccc(NC(=O)[C@H]3CCN(c4cccnn4)C3)cc2)C1 [Example 779, (3S)-N-(4-{[(3R)-1-(2-methylbenzoyl)pyrrolidin-3-yl]oxy}phenyl)-1-(pyridazin-3-yl)pyrrolidine-3-carboxamide] | 1.48 nM
16 | CC(C)Cn1cc(-c2ccc(C(=O)NC3CN(c4cccnn4)C3)o2)cn1 [Example 309, 5-[1-(2-methylpropyl)-1H-pyrazol-4-yl]-N-[1-(pyridazin-3-yl)azetidin-3-yl]furan-2-carboxamide] | 8200 nM
17 | O=C(Nc1ccc(C2CCN(C(=O)c3cccc(Cl)c3)CC2)cc1)[C@H]1CCN(c2cccnn2)C1 [Example 709, (3S)-N-{4-[1-(3-chlorobenzoyl)piperidin-4-yl]phenyl}-1-(pyridazin-3-yl)pyrrolidine-3-carboxamide] | 14.5 nM
18 | O=C(Nc1ccc(C2CCN(C(=O)Cc3cccc(F)c3)CC2)cc1)C1CN(c2ccnnc2)C1 [Example 534, N-(4-{1-[(3-fluorophenyl)acetyl]piperidin-4-yl}phenyl)-1-(pyridazin-4-yl)azetidine-3-carboxamide] | 5.46 nM
19 | Cc1c(F)cccc1C(=O)N1CCC(c2ccc(NC(=O)[C@H]3CCN(c4cccnn4)C3)cc2)CC1 [Example 685, (3S)-N-{4-[1-(3-fluoro-2-methylbenzoyl)piperidin-4-yl]phenyl}-1-(pyridazin-3-yl)pyrrolidine-3-carboxamide] | 8.28 nM
20 | O=C(Nc1ccc(C2CCN(C(=O)c3nccs3)CC2)cc1)C1CN(c2ccnnc2)C1 [Example 526, 1-(pyridazin-4-yl)-N-{4-[1-(1,3-thiazol-2-ylcarbonyl)piperidin-4-yl]phenyl}azetidine-3-carboxamide] | 0.94 nM
21 | COc1cccc(C(=O)N2CCC(c3ccc(NC(=O)[C@H]4CCN(c5cccnn5)C4)cc3)CC2)c1 [Example 720, (3S)-N-{4-[1-(3-methoxybenzoyl)piperidin-4-yl]phenyl}-1-(pyridazin-3-yl)pyrrolidine-3-carboxamide] | 8.57 nM
22 | O=C(Nc1ccc(C2CCN(C(=O)CSc3ncccn3)CC2)cc1)C1CN(c2cccnn2)C1 [Example 382, 1-(pyridazin-3-yl)-N-(4-{1-[(pyrimidin-2-ylsulfanyl)acetyl]piperidin-4-yl}phenyl)azetidine-3-carboxamide] | 8.99 nM
23 | O=C(Nc1ccc(C2CCN(C(=O)Cc3ccccc3F)CC2)cc1)C1CN(c2cccnn2)C1 [Example 366, N-(4-{1-[(2-fluorophenyl)acetyl]piperidin-4-yl}phenyl)-1-(pyridazin-3-yl)azetidine-3-carboxamide] | 6.57 nM
24 | CC(C)(O)Cn1cc(-c2ccc(NC(=O)C3CN(c4cccnn4)C3)cc2)cn1 [Example 753, N-{4-[1-(2-hydroxy-2-methylpropyl)-1H-pyrazol-4-yl]phenyl}-1-(pyridazin-3-yl)azetidine-3-carboxamide] | 8.92 nM
25 | COCCOCC(=O)N1CCC(c2ccc(NC(=O)C3CN(c4cccnc4C)C3)cc2)CC1 [Example 183, N-(4-{1-[(2-methoxyethoxy)acetyl]piperidin-4-yl}phenyl)-1-(2-methylpyridin-3-yl)azetidine-3-carboxamide] | 346 nM
26 | O=C(NCC(=O)N1CCC(c2ccc(NC(=O)[C@H]3CCN(c4cccnn4)C3)cc2)CC1)c1ccccc1 [Example 650, (3S)-N-{4-[1-(N-benzoylglycyl)piperidin-4-yl]phenyl}-1-(pyridazin-3-yl)pyrrolidine-3-carboxamide] | 86.9 nM
27 | CSCCC(=O)N1CCC(c2ccc(NC(=O)[C@H]3CCN(c4cccnn4)C3)cc2)CC1 [Example 715, (3S)-N-(4-{1-[3-(methylsulfanyl)propanoyl]piperidin-4-yl}phenyl)-1-(pyridazin-3-yl)pyrrolidine-3-carboxamide] | 11.8 nM
28 | O=C(Nc1ccc(C2CCN(C(=O)c3ccccc3F)CC2)cc1)C1CN(c2cccnn2)C1 [Example 428, N-{4-[1-(2-fluorobenzoyl)piperidin-4-yl]phenyl}-1-(pyridazin-3-yl)azetidine-3-carboxamide] | 0.19 nM
29 | CCC(C)(C)C(=O)N1CCC(c2ccc(C(=O)NC3CN(c4cccnn4)C3)s2)CC1 [Example 850, 5-[1-(2,2-dimethylbutanoyl)piperidin-4-yl]-N-[1-(pyridazin-3-yl)azetidin-3-yl]thiophene-2-carboxamide] | 70.5 nM
30 | O=C(Nc1ccc(C2CCN(C(=O)C3CCC(F)(F)CC3)CC2)cc1)C1CN(c2ccnnc2)C1 [Example 560, N-(4-{1-[(4,4-difluorocyclohexyl)carbonyl]piperidin-4-yl}phenyl)-1-(pyridazin-4-yl)azetidine-3-carboxamide] | 5.85 nM
31 | Cc1ccc(C(=O)N2CCC(c3ccc(NC(=O)C4CN(c5cccnn5)C4)cc3)CC2)cc1F [Example 389, N-{4-[1-(3-fluoro-4-methylbenzoyl)piperidin-4-yl]phenyl}-1-(pyridazin-3-yl)azetidine-3-carboxamide] | 7.17 nM
32 | CCCCn1nc(C(C)(C)C)cc1-c1ccc(NC(=O)C2CN(c3cccnn3)C2)cc1 [Example 866, N-[4-(1-butyl-3-tert-butyl-1H-pyrazol-5-yl)phenyl]-1-(pyridazin-3-yl)azetidine-3-carboxamide] | 7.92 nM
33 | CC1(C(=O)N2CCC(c3ccc(NC(=O)[C@H]4CCN(c5cccnn5)C4)cc3)CC2)CCCCC1 [Example 654, (3S)-N-(4-{1-[(1-methylcyclohexyl)carbonyl]piperidin-4-yl}phenyl)-1-(pyridazin-3-yl)pyrrolidine-3-carboxamide] | 2.76 nM
34 | CC(=O)N[C@@H](CC(C)C)C(=O)N1CCC(c2ccc(NC(=O)C3CN(c4cccnn4)C3)cc2)CC1 [Example 385, N-{4-[1-(N-acetyl-L-leucyl)piperidin-4-yl]phenyl}-1-(pyridazin-3-yl)azetidine-3-carboxamide] | 23.2 nM
